Measured values: article PMC6792352, “Limited Chemical Structural Diversity Found to Modulate Thyroid Hormone Receptor in the Tox21 Chemical Library” (Environmental Health Perspectives, 2019)
Counter-ions that a name gives are not always drawn.

Assay: in vitro
Conditions: rat, gh3-tre-luc cells

Compound	CC50 at 24 h (AC50 (uM) modified / 1000)	also measured
CC(=O)Oc1c(C)c(C)c2c(c1C)CC[C@@](C)(CCC[C@H](C)CCC[C@H](C)CCCC(C)C)O2 (racemic) [dl-alpha-Tocopheryl acetate]	> 90 µM	–
CC(C)(COP(=O)(O)OP(=O)(O)OC[C@H]1O[C@@H](n2cnc3c(N)ncnc32)[C@H](O)[C@@H]1OP(=O)(O)O)C(O)C(=O)NCCC(=O)NCCS (stereo partly shown) [Coenzyme A trilithium dihydrate]	> 50 µM	–
CCCCNCCCC [N-Butyl-1-butanamine]	> 90 µM	–
CN(C)[C@@H]1C(=O)C(C(=O)NCNCCCC[C@H](N)C(=O)O)=C(O)[C@@]2(O)C(=O)C3=C(O)c4c(O)cccc4[C@@](C)(O)[C@H]3C[C@@H]12 [Lymecycline]	> 20 µM	–
CC=C(C)C#N [2-Methyl-2-butenenitrile]	> 90 µM	–
C=C(C)C(=O)NCCCN(C)C [N-[3-(Dimethylamino)propyl]methacrylamide]	> 90 µM	–
Cn1c(-c2ccccc2)cc(-c2ccccc2)[n+]1C [Difenzoquat metilsulfate]	–	CC50 at 24 h (AC50 (uM) modified / 1000, Tox21_110001=Tox21_201486, viability, 1 nM T3 present, 24 h): > 90 µM
ClC1=C(Cl)[C@]2(Cl)[C@@H]3[C@H]4C[C@H]([C@@H]5O[C@H]45)[C@@H]3[C@@]1(Cl)C2(Cl)Cl [Endrin]	–	CC50 at 24 h (AC50 (uM) modified / 1000, Tox21_110001=Tox21_111120, viability, 1 nM T3 present, 24 h): 34.4 µM; CC50 at 24 h (AC50 (uM) modified / 1000, Tox21_110001=Tox21_300613, viability, 1 nM T3 present, 24 h): > 90 µM
ClCC(Cl)CCl [1,2,3-Trichloropropane]	–	CC50 at 24 h (AC50 (uM) modified / 1000, Tox21_110001=Tox21_202023, viability, 1 nM T3 present, 24 h): > 90 µM
Cn1c(=O)c2c(ncn2CC(O)CO)n(C)c1=O (stereo not shown) [Dyphylline]	> 20 µM	–
CC(N)C(=O)OC(C)(C)Cc1ccc(Cl)cc1 (stereo not shown) [Alaproclate]	25.5 µM	–
C=C(C)C1CC=C(C)[C@@H](O)C1 (stereo partly shown) [Carveol]	> 90 µM	–
COC(C)(OC)OC [1,1,1-Trimethoxyethane]	> 90 µM	–
CC(=O)N[C@@H](CCC(=O)O)C(=O)O [N-Acetyl-L-glutamic acid]	> 50 µM	–
O=C(Nc1ccc(/C=C/c2ccc(NC(=O)c3cc(S(=O)(=O)O)c4cccnc4c3O)cc2S(=O)(=O)O)c(S(=O)(=O)O)c1)c1cc(S(=O)(=O)O)c2cccnc2c1O [Ubistatin A]	> 50 µM	–
CCN(CC)C(=O)SCc1ccc(Cl)cc1 [Thiobencarb]	> 90 µM	–
Cc1cc(O)ccc1Cl [4-Chloro-3-methylphenol]	–	CC50 at 24 h (AC50 (uM) modified / 1000, Tox21_110001=Tox21_111116, viability, 1 nM T3 present, 24 h): > 50 µM; CC50 at 24 h (AC50 (uM) modified / 1000, Tox21_110001=Tox21_201293, viability, 1 nM T3 present, 24 h): > 90 µM
C[C@@H]1C(=O)C[C@H]2[C@]3(C)CC[C@@]2([C@H](C)C(=O)O)C(=O)[C@H]13 [Santonic acid]	> 50 µM	–
C=C1[C@H]2CC[C@@H]3[C@H]2C(C)(C)CCC[C@]13C [Longifolene]	> 90 µM	–
CC(C)(C)c1ccc(OC(=O)c2ccccc2O)cc1 [4-tert-Butylphenyl salicylate]	> 90 µM	–
COC(=O)CC#N [Methyl cyanoacetate]	> 100 µM	–
C[N+]1(C)[C@@H]2C[C@@H](OC(=O)C(O)(c3cccs3)c3cccs3)C[C@H]1[C@@H]1O[C@@H]12 [Tiotropium bromide]	> 50 µM	–
CCCn1cnc2c1c(=O)n(CCCCC(C)=O)c(=O)n2C [Propentofylline]	> 50 µM	–

Compound	CC50 at 24 h (AC50 (uM) modified / 1000)	also measured
CCCCO [1-Butanol]	> 90 µM	–
C#C[C@]1(O)CC[C@H]2[C@@H]3CCC4=CC(=O)CC[C@]4(C)[C@H]3CC[C@@]21C [Ethisterone]	> 90 µM	–
ClC1C(Cl)C(Cl)C(Cl)C(Cl)C1Cl (stereo not drawn) [alpha-1,2,3,4,5,6-Hexachlorocyclohexane]	> 90 µM	–
CC(=O)c1ccc2c(c1)Cc1ccccc1-2 [2-Acetylfluorene]	> 90 µM	–
C[C@@H]1C/C=C/C=C/C=C/C=C/[C@H](O[C@@H]2O[C@H](C)[C@@H](O)[C@H](N)[C@@H]2O)C[C@@H]2O[C@](O)(C[C@@H](O)C[C@H]3O[C@@H]3/C=C/C(=O)O1)C[C@H](O)[C@H]2C(=O)O [Natamycin]	> 50 µM	–
N#CCCOCCOCCC#N [3,3'-(Ethylenedioxy)dipropiononitrile]	> 90 µM	–
O=C1CCO1 [beta-Propiolactone]	–	CC50 at 24 h (AC50 (uM) modified / 1000, Tox21_110001=Tox21_111026, viability, 1 nM T3 present, 24 h): > 50 µM
COc1cc(O)c(C(=O)c2ccccc2)cc1S(=O)(=O)O [Sulisobenzone]	> 90 µM	–
O=C(O)CNCC(=O)O [Iminodiacetic acid]	> 5 µM	–
N#Cc1cc(I)c(O)c(I)c1 [Ioxynil]	49.1 µM	–
O=C1CCC(N2C(=O)c3ccccc3C2=O)C(=O)N1 (stereo not shown) [Thalidomide]	> 90 µM	–
O=C1CCCCCCCCCCC(=O)OCCO1 [1,4-Dioxacyclohexadecane-5,16-dione]	> 90 µM	–
Cn1nnnc1SCC1=C(C(=O)O)N2C(=O)[C@@H](NC(=O)[C@H](O)c3ccccc3)[C@H]2SC1 [Cefamandole sodium]	> 20 µM	–
COc1cc([C@H]2Oc3cc([C@H]4Oc5cc(O)cc(O)c5C(=O)[C@@H]4O)ccc3O[C@@H]2CO)ccc1O [Silybin]	> 90 µM	–
BrCC1CO1 (stereo not shown) [Epibromohydrin]	–	CC50 at 24 h (AC50 (uM) modified / 1000, Tox21_110001=Tox21_202607, viability, 1 nM T3 present, 24 h): > 90 µM
ON=C1CCCCC1 [Cyclohexanone oxime]	> 90 µM	–
CC1(C)OC[C@@H](COC(=O)CCc2ccc(OC[C@@H](O)CNCCNC(=O)N3CCOCC3)cc2)O1 [Landiolol hydrochloride]	> 50 µM	–
Cc1ccc(C(C)C)c(O)c1 [Thymol]	> 90 µM	–
Cc1nnc(SCC2=C(C(=O)O)N3C(=O)[C@@H](NC(=O)Cn4cnnn4)[C@H]3SC2)s1 [Cefazolin]	> 50 µM	–
Nc1ccc(S(=O)(=O)O)c(N)c1 [2,4-Diaminobenzenesulfonic acid]	> 90 µM	–
COC(=O)[C@H]1CC[C@H](C(=O)OC)CC1 [Dimethyl trans-cyclohexane-1,4-dicarboxylate]	> 90 µM	–
OC(Cn1cncn1)(Cn1cncn1)c1ccc(F)cc1F [Fluconazole]	> 90 µM	–
CCOC(=O)CC(SP(=O)(OC)OC)C(=O)OCC (stereo not shown) [Malaoxon]	–	CC50 at 24 h (AC50 (uM) modified / 1000, Tox21_110001=Tox21_202017, viability, 1 nM T3 present, 24 h): > 90 µM

Compound	CC50 at 24 h (AC50 (uM) modified / 1000)	also measured
CSCC[C@H](NC(=O)[C@H](Cc1ccc(OS(=O)(=O)O)cc1)NC(=O)[C@@H](N)CC(=O)O)C(=O)NCC(=O)N[C@@H](Cc1c[nH]c2ccccc12)C(=O)N[C@@H](CCSC)C(=O)N[C@@H](CC(=O)O)C(=O)N[C@@H](Cc1ccccc1)C(N)=O [Sincalide]	> 50 µM	–
O=C1CCCCCCCCCCCC(=O)OCCO1 [1,4-Dioxacycloheptadecane-5,17-dione]	> 90 µM	–
NCC(O)CC(=O)O (stereo not shown) [4-Amino-3-hydroxybutyric acid]	> 50 µM	–
O=C1CC2(CCCC2)CC(=O)N1CCCCN1CCN(c2ncccn2)CC1 [Buspirone]	89.7 µM	–
CC(Oc1cc(Cl)ccc1Cl)C(=O)O (stereo not drawn) [alpha-(2,5-Dichlorophenoxy)propionic acid]	> 90 µM	–
CSC(C)(C)/C=N/O [Aldicarb oxime]	> 90 µM	–
O=C1C(O)=C([C@H]2CC[C@H](c3ccc(Cl)cc3)CC2)C(=O)c2ccccc21 [Atovaquone]	8.49 µM	–
NCCNCCN [Diethylenetriamine]	> 90 µM	–
CC(C)OC(=S)S [Proxan-sodium]	> 90 µM	–
O=C(O)c1c2ccccc2cc2ccccc12 [9-Anthracenecarboxylic acid]	> 90 µM	–
CCCCCOC(C)=O [Pentyl acetate]	> 90 µM	–
O=C(O)Cc1c[nH]c2ccccc12 [Indole-3-acetic acid]	> 90 µM	–
C=CC(=O)NC(C)(C)CS(=O)(=O)O [2-Acrylamido-2-methyl-1-propanesulfonic acid]	> 90 µM	–
CN(C)CCCN(C)CCCN(C)C [2,6,10-Trimethyl-2,6,10-triazaundecane]	> 90 µM	–
C[C]1([Mn](=[C]=O)(=[C]=O)=[C]=O)C=CC=C1 [(Methylcyclopentadienyl)tricarbonylmanganese]	> 90 µM	–
NC(=O)C(=O)N/N=C/c1ccc([N+](=O)[O-])o1 [Nifuraldezone]	24.8 µM	–
CC1CN1 (stereo not shown) [Propyleneimine]	> 90 µM	–
CC(CC=O)CC(C)(C)C (stereo not shown) [3,5,5-Trimethylhexanal]	> 90 µM	–
C[C@H](N)[C@H](O)c1cccc(O)c1 [Metaraminol bitartrate]	> 20 µM	–
C[N+](C)(C)CC(=O)O [Betaine monohydrate]	> 90 µM	–
CN(C(=O)C(Cl)Cl)c1ccc(OC(=O)c2ccco2)cc1 [Diloxanide furoate]	> 50 µM	–
Fc1ccc(C(OCCN2CCN(CCCc3ccccc3)CC2)c2ccc(F)cc2)cc1 [GBR 12909 dihydrochloride]	8.65 µM	–
